Experimental data: PubChem BioAssay (NCI)
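Dose response: 5 concentrations. Exposure: 48 h. Format: 96-well plates. Endpoint: linear interpolation; highest concentration if not reached. TGI: concentration producing complete growth inhibition.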

Legend:
Experiment in all cases: NCI anticancer screen, dose series, 48 h
[1] = tested on: SNB-19 CNS
[2] = tested on: 786-0 renal
[3] = tested on: NCI-H460 lung
[4] = tested on: M14 melanoma
[5] = tested on: SK-MEL-28 melanoma
[6] = tested on: RXF-631 renal
[7] = tested on: CAKI-1 renal
[8] = tested on: HOP-92 NSCLC
[9] = tested on: HOP-18 NSCLC
[10] = tested on: HCC-2998 colon
[11] = tested on: LXFL 529 NSCLC
[12] = tested on: CCRF-CEM leukemia
[13] = tested on: UO-31 renal
[14] = tested on: RPMI-8226 leukemia
[15] = tested on: TK-10 renal
[16] = tested on: HT29 colon
[17] = tested on: U251 CNS
[18] = tested on: SNB-78 CNS
[19] = tested on: SR leukemia
[20] = tested on: UACC-257 melanoma
[21] = tested on: NCI-H226 lung
[22] = tested on: A549 NSCLC
[23] = tested on: HCT-116 colon
[24] = tested on: RXF 393 renal
[25] = tested on: K-562 leukemia
[26] = tested on: OVCAR-4 ovarian
[27] = tested on: EKVX NSCLC
[28] = tested on: SF-539 CNS
[29] = tested on: MALME-3M melanoma
[30] = tested on: SK-MEL-2 melanoma
[31] = tested on: HOP-62 NSCLC
[32] = tested on: SK-OV-3 ovarian
[33] = tested on: NCI-H23 lung
[34] = tested on: COLO 205 colon
[35] = tested on: KM20L2 colon
[36] = tested on: HCT-15 colon
[37] = tested on: SF-295 CNS
[38] = tested on: OVCAR-3 ovarian
[39] = tested on: DMS 273 small cell lung
[40] = tested on: SF-268 CNS
[41] = tested on: SN12C renal
[42] = tested on: MOLT-4 leukemia
[43] = tested on: HL-60(TB) leukemia
[44] = tested on: M19-MEL melanoma
[45] = tested on: LOX IMVI melanoma
[46] = tested on: XF 498 CNS
[47] = tested on: ACHN renal
[48] = tested on: UACC-62 melanoma
[49] = tested on: SW-620 colon
[50] = tested on: SK-MEL-5 melanoma
[51] = tested on: NCI-H522 lung
[52] = tested on: OVCAR-5 ovarian
[53] = tested on: SNB-75 CNS
[54] = tested on: DMS 114 small cell lung
[55] = tested on: KM12 colon
[56] = tested on: OVCAR-8 ovarian
[57] = tested on: DLD-1 colon
[58] = tested on: MCF7 breast
[59] = tested on: PC-3 prostate
[60] = tested on: IGROV1 ovarian
[61] = tested on: BT-549 breast
[62] = tested on: T-47D breast
[63] = tested on: DU-145 prostate
[64] = tested on: A498 renal
[65] = tested on: HS 578T breast
[66] = tested on: MDA-MB-435
[67] = tested on: MDA-MB-231 breast
[68] = tested on: NCI/ADR-RES ovarian
[69] = tested on: MDA-N

COc1cc(/C=C2\CCc3ccccc3C2=O)cc(OC)c1OC
TGI [1]: 29.2 µM
TGI [2]: 29.3 µM
TGI [3]: 36.4 µM
TGI [4]: 30 µM
TGI [5]: 28.4 µM
TGI [6]: 38.6 µM
TGI [7]: 29.8 µM
TGI [8]: 24.5 µM
TGI [9]: 26.9 µM
TGI [10]: 32.2 µM
TGI [11]: 29.5 µM
TGI [12]: 75.1 µM
TGI [13]: 30.7 µM
TGI [14]: 31.3 µM
TGI [15]: 33.6 µM
TGI [16]: 32.5 µM
TGI [17]: 29.7 µM
TGI [18]: 74.1 µM
TGI [19]: > 100000 nM
TGI [20]: 27.4 µM
TGI [21]: 36.8 µM
TGI [22]: 50.1 µM
TGI [23]: 28 µM
TGI [24]: 29 µM
TGI [25]: > 100 µM
TGI [26]: 60.8 µM
TGI [27]: 34.3 µM
TGI [28]: 30.8 µM
TGI [29]: 32.9 µM
TGI [30]: 29.8 µM
TGI [31]: 47.8 µM
TGI [32]: 35.5 µM
TGI [33]: 29.2 µM
TGI [34]: 30.7 µM
TGI [35]: 31.1 µM
TGI [36]: 34.5 µM
TGI [37]: 28.6 µM
TGI [38]: 30.1 µM
TGI [39]: 24.2 µM
TGI [40]: 30.3 µM
TGI [41]: 35.6 µM
TGI [42]: 40.7 µM
TGI [43]: 45.5 µM
TGI [44]: 30 µM
TGI [45]: 24.4 µM
TGI [46]: 32.1 µM
TGI [47]: 29.6 µM
TGI [48]: 27.5 µM
TGI [49]: 31 µM
TGI [50]: 25.3 µM
TGI [51]: 28.2 µM
TGI [52]: 27.9 µM
TGI [53]: 53.6 µM
TGI [54]: 25.1 µM
TGI [55]: 26.5 µM
TGI [56]: 29.8 µM
TGI [57]: 28.3 µM

Cc1nc2ccc(NCCN(C)C)c3c(=O)c4cc(O)ccc4n1c23
TGI [1]: 7.06 µM
TGI [2]: 10.5 µM
TGI [3]: 1.39 µM
TGI [4]: 15.9 µM
TGI [58]: 11.5 µM
TGI [5]: 11.7 µM
TGI [6]: 1.96 µM
TGI [7]: 3.94 µM
TGI [8]: 6.96 µM
TGI [10]: 1.71 µM
TGI [59]: 4.86 µM
TGI [11]: 11.1 µM
TGI [60]: 9.46 µM
TGI [12]: 2.5 µM
TGI [13]: 9.14 µM
TGI [14]: 6.23 µM
TGI [61]: 19 µM
TGI [15]: 12.5 µM
TGI [16]: 2.4 µM
TGI [62]: 14.8 µM
TGI [63]: 4.93 µM
TGI [17]: 11.7 µM
TGI [19]: 248 nM
TGI [20]: 13.6 µM
TGI [21]: 1.7 µM
TGI [22]: 3.39 µM
TGI [64]: 4.93 µM
TGI [65]: 2770 nM
TGI [23]: 2.22 µM
TGI [25]: 4.25 µM
TGI [26]: 3.38 µM
TGI [28]: 12.2 µM
TGI [29]: 9.06 µM
TGI [30]: 13.4 µM
TGI [31]: 11.1 µM
TGI [32]: 8.98 µM
TGI [33]: 2.05 µM
TGI [34]: 2.3 µM
TGI [36]: 2.8 µM
TGI [37]: 5.87 µM
TGI [38]: 9.94 µM
TGI [66]: 13.7 µM
TGI [39]: 1.76 µM
TGI [67]: 13.2 µM
TGI [40]: 5.43 µM
TGI [41]: 4.93 µM
TGI [42]: 0.904 µM
TGI [68]: 7.29 µM
TGI [43]: 3.1 µM
TGI [69]: 13.7 µM
TGI [44]: 9.27 µM
TGI [45]: 2.62 µM
TGI [46]: 11.2 µM
TGI [47]: 1.94 µM
TGI [48]: 5.63 µM
TGI [49]: 4.53 µM
TGI [50]: 10.5 µM
TGI [51]: 1.98 µM
TGI [52]: 6.05 µM
TGI [53]: 5.63 µM
TGI [54]: 2.14 µM
TGI [55]: 4.09 µM
TGI [56]: 2.37 µM
